# Data from publication PMC8041276 (ACS Chemical Neuroscience, 2021).
# Experiments:
# [1] = test system: cognitive flexibility; test: Attentional set-shifting task (ASST); type: in vivo, male Sprague-Dawley rats; details: rats
# Procedure: The experiments were conducted in accordance with the NIH Guide for the Care and Use of Laboratory Animals and were approved by the II Local Ethics Committee for Animal Experiments, Maj Institute of Pharmacology. Male […] Sprague-Dawley rats (Charles River, Germany) weighing ∼250 g at the arrival were housed in the standard laboratory cages, under standard colony A/C controlled conditions: room temperature 21 ± 2 °C, humidity (40–50%), 12 h light/dark cycle (lights on, 06:00) with ad libitum access to food (unless stated otherwise) and water. Rats were allowed to acclimatize for at least 7 days before the start of the experimental procedure. During this week animals were handled at least 3 times. Behavioral testing was carried out during the light phase of the light/dark cycle. At least 1 h before the start of the experiment, rats were transferred to the experimental room for acclimation.
# Thirty-two male Sprague-Dawley rats were group housed with a mild food restriction (17 g of food pellets per day) for at least 1 week prior to training.
# Testing was conducted in a Plexiglas apparatus (length × width × height: 38 cm × 38 cm × 17 cm) with the grid floor and wall dividing half of the length of the cage into two sections. During testing, one ceramic digging pot (internal diameter of 10.5 cm and a depth of 4 cm) was placed in each section. Each pot was defined by a pair of cues along with two stimulus dimensions. To mark each pot with a distinct odor, 5 μL of a flavoring essence (Dr Oetker, Poland, or The Body Shop, U.K.) was applied to a piece of blotting paper fixed to the external rim of the pot immediately prior to use. A different pot was used for each combination of digging medium and odor; only one odor was ever applied to a given pot. The bait (one-half of a Honey Nut Cheerios, Nestle) was placed at the bottom of the “positive” pot and buried in the digging medium. A small amount of powdered Cheerios was added to the digging media to prevent the rat from trying to detect the buried reward by its smell. […]
# Day 3, Testing. […] An incorrect choice was recorded as an error. […]
# [2] = test system: HepG2 cells; test: LDH assay, hepatotoxicity in HepG2 cells; type: cell-based, human; details: HepG2, 24 h, 0.1–25 μM
# Procedure: (§1) Human hepatocellular carcinoma cells (HepG2) were cultured using standard procedures (protocol from ATCC). Cells were cultured in Eagle’s minimum essential medium (EMEM) in flasks with an area of 25 cm^2 (Falcon), supplemented with 10% of fetal bovine serum (FBS, Life Technologies) with the addition of 100 IU/mL penicillin (Sigma-Aldrich) and 100 μg/mL streptomycin (Sigma-Aldrich) and incubated at 37 °C in a humidified atmosphere with 5% CO2.
# Cells were seeded at density 2 × 10^4 cells/per well in […] plates. After 24 h, compound 27 and reference standard DOX (highly cytotoxic agent) were added to final concentrations of 0.1–150 μM. After 24 h incubation, plates were centrifuged (200g, 2 min) and 50 μL of the supernatant was transferred into the corresponding 96-well plate. Subsequently, 50 μL of LDH-reaction mixture prepared according to the manufacturer’s instructions (Invitrogen) was added to each well. Incubation was conducted in darkness for 30 min at room temperature. Next, stop solution was added and absorbance was measured at 490 nm (A490) using a plate reader (Spectra Max iD3, Molecular Devices). Cytotoxicity was determined as follows: cytotoxicity (%) = [(compound LDH activity – spontaneous LDH activity)/(maximum LDH activity – spontaneous LDH activity)] × 100. The maximum LDH activity was prepared by treating cells with lysis buffer. […]
# [3] = test system: HepG2 cells; test: MTT assay, hepatotoxicity in HepG2 cells; type: cell-based, human; details: HepG2, 24 h
# Procedure: as §1
# The MTT assay was used to determine the viability of HepG2 cells incubated in the presence of compound 27 and DOX. Cells were seeded at a density of 2 × 10^4 in 96-well plates. […] Following cell exposure to each compound 10 μL of MTT reagent (Sigma-Aldrich) was added to each well. After 4 h of incubation (37 °C, 5% CO2) the culture medium was aspirated and formazan crystals were dissolved in 100 μL of DMSO. Then, optical density (OD) at 570 nm was determined on a plate reader (Spectra Max iD3, Molecular Devices). Each individual experiment was repeated at least three times.
smiles,measurement,setting,value
"O=C(N[C@@H]1CCNC1)c1ccn(S(=O)(=O)c2cccc(Cl)c2)c1-c1ccc(F)cc1 [Compound 27, (R)-2-(4-Fluorophenyl)-1-[(3-chlorophenyl)sulfonyl]-N-(pyrrolidin-3-yl)-1H-pyrrole-3-carboxamide]",cognitive flexibility (trials to criterion),[1]; 6 mg/kg p.o.,effective only during the Rev2 phase
same,cognitive flexibility (trials to criterion),"[1]; 9 mg/kg p.o., ED, Rev1, Rev2, Rev3 stages",enhanced cognitive flexibility
same,mean time to complete the trial,"[1]; 6 and 9 mg/kg p.o., all discrimination stages",did not affect the mean time to complete the trial
same,cell membrane integrity (LDH test),[2],did not affect the cell membrane integrity
same,metabolic activity of cells (MTT test),[3]; 0.1–25 μM,did not impair the metabolic activity of cells
same,IC50,"[3]; Homo sapiens, printed in Figure 5A, read-out: IC50, cellular viability (MTT)",32.3 µM
